{"source": "patent US20250171431A1", "about": "“HETEROCYCLIC INHIBITORS OF IGF-1R FOR TREATMENT OF DISEASE” (HORIZON THERAPEUTICS IRELAND DAC, priority 2023, published 2025)", "key": {"[1]": {"target": "T1, IGF-1R (Homo sapiens (Human), UniProt P08069)", "assay": "Example B-1: IGF-1R Assay (PC3 cells, IGF1 stimulation, AlphaLISA)", "format": "cell-based", "details": "200 ng/mL IGF1 stimulation, read-out: Biological Activity against IGF-1R IC50", "method_in_brief": "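Readout is AlphaLISA signal from lysed PC3 cells, expressed as % inhibition versus vehicle and EC80 controls and banded by IC50. Before lysis, the cells were starved of serum for 2 h, exposed to 3× serially diluted compound for 2 h, and stimulated for 30 min with 200 ng/mL IGF1 (final).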"}, "[2]": {"target": "T1, IGF-1R", "assay": "Example B-2: IGF-1R Assay (PathHunter cell lines, EC80 agonist challenge)", "format": "cell-based", "details": "read-out: IC50 (Biological Activity against IGF-1R)", "method_in_brief": "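PathHunter cells were pre-incubated with compound for 60 min at 37° C. (1% vehicle), then challenged with EC80 agonist for 3 hours at room temperature. Chemiluminescent detection followed after 1 h. Percent inhibition was calculated relative to EC80 and vehicle controls, and IC50 values were binned into categories.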"}}}
{"compound": "c1ccc2ncc(Nc3ccnc(Nc4ccc5ccn(CC6CCCCC6)c5c4)n3)cc2c1", "note": "[Compound 503, 2-[1-(cyclohexylmethyl)-6-indolylamino]-4-(3-quinolylamino)pyrimidine]", "values": [{"measurement": "IC50", "setting": "[1]", "value": "2000 to 10000", "unit": "nM"}, {"measurement": "IC50", "setting": "[2]", "value": "2000 to 10000", "unit": "nM"}]}
{"compound": "c1ccc2ncc(Nc3ccnc(Nc4ccc5c(c4)OCCO5)n3)cc2c1", "note": "[Compound 505, 2-(2,3-dihydro-1,4-benzodioxin-6-ylamino)-4-(3-quinolylamino)pyrimidine]", "values": [{"measurement": "IC50", "setting": "[1]", "value": "≤ 500", "unit": "nM"}, {"measurement": "IC50", "setting": "[2]", "value": "≤ 500", "unit": "nM"}]}
